# Activity calls are given as the source filed them. The calls are words filed in the database; no cut-off is given here.
# Legend:
# [1] = molecular target: Receptor tyrosine-protein kinase erbB-2 (Homo sapiens, UniProt P04626)
# Description: Inhibition of autophosphorylation of ERBB2 receptor kinase in MDA-MB 453 cells
# [2] = system: Mus musculus; assay: In vivo activity against xenografts in mice, ratio of treated/control tumor mass at 10 mg/kg intraperitoneal dose
# [3] = system: A-431; assay: In vivo activity against A431 xenografts in mice, difference in days for treated(T) and control(C) tumors to reach 750 mg at 60 mg/kg peroral dose for 10-24 days; assay type: functional; details: route oral
# [4] = system: A-431; assay: In vivo activity against A431 xenografts in mice after 60 mg/kg peroral dose; assay type: functional; details: route oral
# [5] = system: A-431; assay: In vivo activity against A431 xenografts in mice, difference in days for treated(T) and control(C) tumors to reach 750 mg at 10 mg/kg intraperitoneal dose for 13-26 days
# [6] = system: Mus musculus; assay: In vivo activity against xenografts in mice, ratio of treated/control tumor mass at 10 mg/kg peroral dose for 10-24 days; assay type: functional; details: route oral
# [7] = molecular target: T1, Epidermal growth factor receptor (Homo sapiens, UniProt P00533)
# Description: Inhibition of EGF-stimulated autophosphorylation of EGFR enzyme in A431 cells detected by immunoblotting
# [8] = molecular target: T1, Epidermal growth factor receptor; remark: listed apart in the source
# Description: Inhibition of phosphorylation of a polyglutamic acid/tyrosine random copolymer by EGFR enzyme prepared from human A431 carcinoma cell vesicles by immunoaffinity chromatography
# [9] = system: Caco-2; assay: Efflux in Caco-2 cells; yes; assay type: functional, cell-based; details: Homo sapiens
# [10] = system: Caco-2; assay: permeability in Caco-2 cells; yes; assay type: functional, cell-based; details: Homo sapiens
# [11] = system: Caco-2; assay: Absorptive transport in Caco-2 cells in comparison to metoprolol; assay type: functional, cell-based; details: Homo sapiens
# [12] = system: A-431; assay: In vivo activity against A431 xenografts in mice, ratio of treated/control tumor mass at 18 mg/kg peroral dose for 10-24 days; details: route oral
# [13] = system: Caco-2; assay: Efflux in Caco-2 cells; no; assay type: functional, cell-based; details: Homo sapiens
# [14] = system: A-431; assay: In vivo activity against A431 xenografts in mice, ratio of treated/control tumor mass at 5 mg/kg peroral dose for 10-24 days; assay type: functional; details: route oral
# [15] = system: Caco-2; assay: permeability in Caco-2 cells; no; assay type: functional, cell-based; details: Homo sapiens
# [16] = system: Caco-2; assay: Absorptive transport in Caco-2 cells in comparison to metoprolol.; assay type: functional, cell-based; details: Homo sapiens
# [17] = system: A-431; assay: In vivo activity against A431 xenografts in mice, ratio of treated/control tumor mass at 20 mg/kg peroral dose for 15-19 days; details: route oral
# [18] = system: Caco-2; assay: Secretory Transport in Caco-2 cells in comparison to metoprolol; assay type: functional, cell-based; parameters: unit not given here; details: Homo sapiens
# [19] = system: A-431; assay: In vivo activity against A431 xenografts in mice, ratio of treated/control A431 cell tumor mass at 20 mg/kg peroral dose for 10-24 days; assay type: functional; details: route oral
# [20] = system: A-431; assay: In vivo activity against A431 xenografts in mice, difference in days for treated(T) and control(C) tumors to reach 750 mg at 20 mg/kg peroral dose for 10-24 days; assay type: functional; details: route oral
# T1 sequence (P00533 whole entry): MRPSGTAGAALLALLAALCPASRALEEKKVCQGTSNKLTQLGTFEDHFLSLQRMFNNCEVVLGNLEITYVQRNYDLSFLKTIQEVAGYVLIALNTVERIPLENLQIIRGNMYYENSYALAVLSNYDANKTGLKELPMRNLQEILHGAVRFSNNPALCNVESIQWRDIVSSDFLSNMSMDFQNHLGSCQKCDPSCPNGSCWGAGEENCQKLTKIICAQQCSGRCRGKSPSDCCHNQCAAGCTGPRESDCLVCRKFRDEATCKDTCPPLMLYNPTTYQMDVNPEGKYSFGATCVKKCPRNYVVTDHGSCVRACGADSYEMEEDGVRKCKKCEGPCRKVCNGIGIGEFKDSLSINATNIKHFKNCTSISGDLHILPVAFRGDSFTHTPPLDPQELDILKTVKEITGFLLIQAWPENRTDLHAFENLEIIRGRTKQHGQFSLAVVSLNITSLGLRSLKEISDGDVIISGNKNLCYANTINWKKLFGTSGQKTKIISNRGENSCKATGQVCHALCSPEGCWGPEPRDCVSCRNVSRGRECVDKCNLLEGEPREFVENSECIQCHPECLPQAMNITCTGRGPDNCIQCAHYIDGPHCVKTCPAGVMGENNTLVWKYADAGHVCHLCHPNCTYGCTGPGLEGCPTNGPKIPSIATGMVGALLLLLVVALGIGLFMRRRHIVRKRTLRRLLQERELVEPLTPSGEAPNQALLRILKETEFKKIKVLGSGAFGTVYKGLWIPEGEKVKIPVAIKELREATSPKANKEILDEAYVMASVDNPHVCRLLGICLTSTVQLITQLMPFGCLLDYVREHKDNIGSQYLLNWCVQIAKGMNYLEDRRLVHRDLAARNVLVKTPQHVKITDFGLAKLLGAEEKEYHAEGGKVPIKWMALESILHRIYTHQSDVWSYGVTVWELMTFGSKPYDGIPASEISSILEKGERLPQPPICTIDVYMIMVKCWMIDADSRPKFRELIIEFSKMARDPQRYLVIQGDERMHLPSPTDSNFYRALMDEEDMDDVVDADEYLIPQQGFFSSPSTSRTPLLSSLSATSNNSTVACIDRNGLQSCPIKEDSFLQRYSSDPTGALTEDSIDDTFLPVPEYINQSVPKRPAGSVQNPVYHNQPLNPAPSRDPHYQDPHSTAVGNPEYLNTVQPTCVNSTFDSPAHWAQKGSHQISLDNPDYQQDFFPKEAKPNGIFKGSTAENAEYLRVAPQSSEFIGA
# Receptor tyrosine-protein kinase erbB-2, sequence (P04626 whole entry): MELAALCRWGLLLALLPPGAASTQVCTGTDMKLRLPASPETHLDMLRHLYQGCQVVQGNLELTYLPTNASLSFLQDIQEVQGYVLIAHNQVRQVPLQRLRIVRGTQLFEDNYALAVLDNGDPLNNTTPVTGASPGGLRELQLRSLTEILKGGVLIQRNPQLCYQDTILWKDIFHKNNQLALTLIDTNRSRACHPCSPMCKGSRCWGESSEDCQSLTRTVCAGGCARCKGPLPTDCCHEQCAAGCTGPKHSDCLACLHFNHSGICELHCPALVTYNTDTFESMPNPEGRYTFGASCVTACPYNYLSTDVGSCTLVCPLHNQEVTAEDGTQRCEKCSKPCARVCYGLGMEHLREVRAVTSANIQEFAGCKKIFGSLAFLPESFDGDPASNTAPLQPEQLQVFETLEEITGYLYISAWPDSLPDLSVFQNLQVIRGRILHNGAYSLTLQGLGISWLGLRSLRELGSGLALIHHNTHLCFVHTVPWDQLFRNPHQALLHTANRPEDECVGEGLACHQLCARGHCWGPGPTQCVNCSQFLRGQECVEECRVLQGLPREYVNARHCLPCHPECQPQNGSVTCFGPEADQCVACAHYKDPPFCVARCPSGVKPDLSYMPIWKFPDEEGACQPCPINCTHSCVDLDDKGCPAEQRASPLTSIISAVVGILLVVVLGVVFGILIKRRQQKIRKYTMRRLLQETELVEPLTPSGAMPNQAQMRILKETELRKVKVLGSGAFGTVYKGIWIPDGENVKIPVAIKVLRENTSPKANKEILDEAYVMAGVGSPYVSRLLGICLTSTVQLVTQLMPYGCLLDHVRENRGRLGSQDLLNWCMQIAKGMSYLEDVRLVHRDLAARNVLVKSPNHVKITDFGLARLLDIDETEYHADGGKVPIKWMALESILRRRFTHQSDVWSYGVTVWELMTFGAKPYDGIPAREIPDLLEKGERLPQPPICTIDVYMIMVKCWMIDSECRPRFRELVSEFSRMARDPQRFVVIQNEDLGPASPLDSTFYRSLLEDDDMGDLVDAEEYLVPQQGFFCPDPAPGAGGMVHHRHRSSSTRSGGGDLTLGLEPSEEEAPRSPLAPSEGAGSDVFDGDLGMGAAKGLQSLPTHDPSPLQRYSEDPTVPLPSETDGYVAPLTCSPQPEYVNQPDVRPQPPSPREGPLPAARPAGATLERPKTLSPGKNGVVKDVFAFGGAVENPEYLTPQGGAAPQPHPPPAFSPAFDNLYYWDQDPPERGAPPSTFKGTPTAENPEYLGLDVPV
IC50 [1] [nM],IC50 [7] [nM],IC50 [8] [nM],SMILES,also measured
12,119,0.16,C=CC(=O)Nc1nc2c(Nc3ccc(F)c(Cl)c3)ncnc2cc1/C=C/CCN1CCOCC1,–
> 5000,5100,2.7,C=CC(=O)Nc1nc2c(Nc3ccc(F)c(Cl)c3)ncnc2cc1CCCCN1CCOCC1,–
> 200,88,20,C=CC(=O)N(C)c1nc2c(Nc3ccc(F)c(Cl)c3)ncnc2cc1OCCCN1CCOCC1,–
189,434,1.5,C=CC(=O)Nc1nc2c(Nc3ccc(F)c(Cl)c3)ncnc2cc1OCCCN1CCOCC1,Efflux [13]: Impermeable; Weight change [17]: -0.5 g; Permeability [18]: 81.2; Permeability limited [15]: Impermeable; T/C [19]: 69%; T-C [20]: 9.3 days; Permeability [11]: 59.6 ·10e6
8.2,4.7,1.8,C=CC(=O)Nc1cc2c(Nc3ccc(F)c(Br)c3)ncnc2cc1OCCCN1CCOCC1,–
–,377,0.97,C=CC(=O)Nc1nc2c(Nc3ccc(F)c(Cl)c3)ncnc2cc1OCCOC,–
–,18,2,C=CC(=O)Nc1cc2c(Nc3cccc(C)c3)ncnc2cc1OCCCN1CCN(C)CC1,–
–,416,45,C=CC(=O)Nc1ccc2ncnc(Nc3ccc(CN(C)C)c(Br)c3)c2c1,–
182,264,6.6,C=CC(=O)Nc1nc2c(Nc3ccc(F)c(Cl)c3)ncnc2cc1OCCCN1CCN(C)CC1,–
–,3,1.7,C=CC(=O)Nc1cc2c(Nc3cccc(Br)c3)ncnc2cc1OCCCN1CCN(C)CC1,–

# Second part, the compound before the results:
SMILES,IC50 [1] [nM],IC50 [7] [nM],IC50 [8] [nM],also measured
C=CC(=O)Nc1ccc2ncnc(Nc3cccc(C)c3)c2c1,22,–,–,–
C=CC(=O)Nc1cc2c(Nc3cccc(Br)c3)ncnc2cc1OCCCN1CCOCC1,6.4,–,–,T/C [2]: 18%; T-C [3]: 29.8 days; Weight change [4]: -1.6 g; T-C [5]: 21.5 days; T/C [6]: 0%
C=CC(=O)Nc1cc2c(Nc3cccc(Br)c3)ncnc2cc1OCCCCN(C)C,–,7.9,3.9,–
C=CC(=O)Nc1ccc2ncnc(Nc3ccc(OCCN(C)C)c(Br)c3)c2c1,–,7690,27,–
C=CC(=O)Nc1cc2c(Nc3cccc(Br)c3)ncnc2cc1SCCCN(CC)CC,–,196,0.78,–
CC[C@]1(O)C[C@@H]2CN(CCc3c([nH]c4ccccc34)[C@@](C(=O)OC)(c3cc4c(cc3OC)N(C)[C@H]3[C@@](O)(C(=O)OC)[C@H](OC(C)=O)[C@]5(CC)C=CCN6CC[C@]43[C@@H]65)C2)C1,–,–,–,Permeability [9]: Active; Permeability [10]: Active; Permeability [11]: 1.54 ·10e6
C=CC(=O)Nc1cc2c(Nc3ccc(F)c(Cl)c3)ncnc2cc1OCCCN1CCOCC1 [CANERTINIB],–,–,–,Last therapy day [12]: 0%; Efflux [13]: Impermeable; Last therapy day [14]: 4%; Cell permeation [15]: Impermeable; Permeability [16]: 49.3 ·10e6
C=CC(=O)Nc1cc2c(Nc3ccc(F)c(Cl)c3)ncnc2cc1OCCOCCCCO,–,–,1.7,–
COCCc1ccc(OCC(O)CNC(C)C)cc1 (stereo unspecified),–,–,–,Permeability [13]: Impermeable; Permeability [15]: Impermeable; Permeability [11]: 21.4 ·10e6
C=CC(=O)Nc1nc2c(Nc3ccc(F)c(Cl)c3)ncnc2cc1OC,125,291,0.95,–

# Reference: ChEMBL document CHEMBL1133162, “Tyrosine kinase inhibitors. 17. Irreversible inhibitors of the epidermal growth factor receptor: 4-(phenylamino)quinazoline- and 4-(phenylamino)pyrido[3,2-d]pyrimidine-6-acrylamides bearing additional solubilizing functions” (J Med Chem, 2000)
